pKd: −log10 of the molar value. Active and inactive are the calls of the source. Cut-off read from the data, not from the text of the source, for most assays here: actives have a measured Kd and inactives only a lower limit.
Key:
[1] = molecular target: STE20-like serine/threonine-protein kinase (Homo sapiens, UniProt Q9H2G2)
[2] = molecular target: T1, RNA cytidine acetyltransferase (Homo sapiens, UniProt Q9H0A0)
T1 sequence (Q9H0A0 whole entry): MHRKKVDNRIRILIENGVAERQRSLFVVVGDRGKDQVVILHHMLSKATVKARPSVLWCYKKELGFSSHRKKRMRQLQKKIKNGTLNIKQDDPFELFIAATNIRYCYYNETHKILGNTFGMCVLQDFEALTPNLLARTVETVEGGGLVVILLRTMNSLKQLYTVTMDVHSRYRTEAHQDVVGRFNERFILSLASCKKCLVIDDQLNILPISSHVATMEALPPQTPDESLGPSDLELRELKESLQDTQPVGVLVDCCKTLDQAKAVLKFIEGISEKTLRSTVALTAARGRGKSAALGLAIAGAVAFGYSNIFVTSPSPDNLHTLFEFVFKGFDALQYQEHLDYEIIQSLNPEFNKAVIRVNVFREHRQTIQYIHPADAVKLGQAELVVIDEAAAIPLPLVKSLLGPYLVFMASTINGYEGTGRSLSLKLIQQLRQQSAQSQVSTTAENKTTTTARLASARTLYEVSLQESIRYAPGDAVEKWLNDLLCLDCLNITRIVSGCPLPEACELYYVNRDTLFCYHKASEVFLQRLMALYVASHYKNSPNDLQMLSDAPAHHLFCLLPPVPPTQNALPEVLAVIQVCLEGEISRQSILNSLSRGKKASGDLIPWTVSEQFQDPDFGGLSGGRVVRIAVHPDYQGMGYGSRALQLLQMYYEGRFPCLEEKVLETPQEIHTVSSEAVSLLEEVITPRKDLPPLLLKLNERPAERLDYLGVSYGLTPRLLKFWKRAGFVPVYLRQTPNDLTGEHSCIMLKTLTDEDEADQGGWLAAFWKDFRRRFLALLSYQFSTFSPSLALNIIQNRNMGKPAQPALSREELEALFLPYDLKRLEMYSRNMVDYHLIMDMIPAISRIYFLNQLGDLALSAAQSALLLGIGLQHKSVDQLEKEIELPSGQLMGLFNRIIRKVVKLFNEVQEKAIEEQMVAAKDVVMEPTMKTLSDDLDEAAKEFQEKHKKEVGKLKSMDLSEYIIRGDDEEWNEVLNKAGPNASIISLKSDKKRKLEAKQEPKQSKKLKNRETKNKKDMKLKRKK

[3] = molecular target: Elongation factor Tu, mitochondrial (Homo sapiens, UniProt P49411)
[4] = molecular target: Calcium/calmodulin-dependent protein kinase type II subunit gamma (Homo sapiens, UniProt Q13555)
[5] = molecular target: T2, Serine/threonine-protein kinase A-Raf (Homo sapiens, UniProt P10398)
T2 sequence (P10398 whole entry): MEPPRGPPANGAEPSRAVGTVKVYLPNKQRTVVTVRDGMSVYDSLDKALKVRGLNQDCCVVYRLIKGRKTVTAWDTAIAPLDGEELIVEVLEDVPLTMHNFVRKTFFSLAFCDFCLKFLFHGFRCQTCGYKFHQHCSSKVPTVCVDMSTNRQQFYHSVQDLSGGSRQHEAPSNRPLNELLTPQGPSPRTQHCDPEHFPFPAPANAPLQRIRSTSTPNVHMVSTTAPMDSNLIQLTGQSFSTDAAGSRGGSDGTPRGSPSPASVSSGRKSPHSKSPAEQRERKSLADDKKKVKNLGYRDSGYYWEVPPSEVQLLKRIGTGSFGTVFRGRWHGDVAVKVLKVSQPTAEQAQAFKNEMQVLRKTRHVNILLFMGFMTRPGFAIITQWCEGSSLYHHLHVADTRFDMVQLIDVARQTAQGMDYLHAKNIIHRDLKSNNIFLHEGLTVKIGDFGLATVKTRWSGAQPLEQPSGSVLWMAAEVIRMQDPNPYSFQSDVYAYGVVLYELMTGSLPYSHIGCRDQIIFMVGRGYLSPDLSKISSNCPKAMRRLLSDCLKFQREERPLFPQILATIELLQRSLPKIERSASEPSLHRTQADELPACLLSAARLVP

[6] = molecular target: DNA topoisomerase 2-beta (Homo sapiens, UniProt Q02880)
[7] = molecular target: T3, Activin receptor type-1 (Homo sapiens, UniProt Q04771)
T3 sequence (Q04771 whole entry): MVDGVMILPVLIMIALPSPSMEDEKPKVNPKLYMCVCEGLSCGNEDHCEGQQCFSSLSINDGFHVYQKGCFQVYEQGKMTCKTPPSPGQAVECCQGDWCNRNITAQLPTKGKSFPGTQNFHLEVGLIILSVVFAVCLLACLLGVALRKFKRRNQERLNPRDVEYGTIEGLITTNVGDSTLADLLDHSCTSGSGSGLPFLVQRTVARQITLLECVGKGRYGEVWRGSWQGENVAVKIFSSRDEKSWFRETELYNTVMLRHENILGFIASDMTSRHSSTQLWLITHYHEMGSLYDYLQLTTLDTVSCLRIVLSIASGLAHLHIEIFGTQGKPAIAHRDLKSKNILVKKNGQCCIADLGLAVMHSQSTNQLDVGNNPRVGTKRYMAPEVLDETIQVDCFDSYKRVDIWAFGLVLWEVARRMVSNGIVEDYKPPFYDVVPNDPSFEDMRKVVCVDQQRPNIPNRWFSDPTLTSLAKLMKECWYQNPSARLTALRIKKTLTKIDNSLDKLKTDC

[8] = molecular target: T4, Calcium/calmodulin-dependent protein kinase type IV (Homo sapiens, UniProt Q16566)
T4 sequence (Q16566 whole entry): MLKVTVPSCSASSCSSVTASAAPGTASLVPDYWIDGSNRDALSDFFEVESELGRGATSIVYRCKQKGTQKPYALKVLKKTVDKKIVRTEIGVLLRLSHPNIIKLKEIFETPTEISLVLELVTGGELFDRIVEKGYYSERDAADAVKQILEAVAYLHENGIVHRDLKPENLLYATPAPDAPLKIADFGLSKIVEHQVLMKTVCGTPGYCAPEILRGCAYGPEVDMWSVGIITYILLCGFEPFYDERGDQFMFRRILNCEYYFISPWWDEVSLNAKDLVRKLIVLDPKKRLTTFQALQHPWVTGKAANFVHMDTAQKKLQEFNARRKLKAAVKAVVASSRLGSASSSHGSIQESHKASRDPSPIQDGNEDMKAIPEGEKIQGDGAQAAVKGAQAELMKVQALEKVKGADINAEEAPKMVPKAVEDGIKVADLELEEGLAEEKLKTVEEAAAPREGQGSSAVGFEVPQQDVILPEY

[9] = molecular target: Dual specificity tyrosine-phosphorylation-regulated kinase 1A (Homo sapiens, UniProt Q13627)
[10] = molecular target: cAMP-dependent protein kinase catalytic subunit alpha (Homo sapiens, UniProt P17612)
Note: in the data inactive means no Kd found up to 30 µM.

Sequence of DNA topoisomerase 2-beta (Q02880 whole entry): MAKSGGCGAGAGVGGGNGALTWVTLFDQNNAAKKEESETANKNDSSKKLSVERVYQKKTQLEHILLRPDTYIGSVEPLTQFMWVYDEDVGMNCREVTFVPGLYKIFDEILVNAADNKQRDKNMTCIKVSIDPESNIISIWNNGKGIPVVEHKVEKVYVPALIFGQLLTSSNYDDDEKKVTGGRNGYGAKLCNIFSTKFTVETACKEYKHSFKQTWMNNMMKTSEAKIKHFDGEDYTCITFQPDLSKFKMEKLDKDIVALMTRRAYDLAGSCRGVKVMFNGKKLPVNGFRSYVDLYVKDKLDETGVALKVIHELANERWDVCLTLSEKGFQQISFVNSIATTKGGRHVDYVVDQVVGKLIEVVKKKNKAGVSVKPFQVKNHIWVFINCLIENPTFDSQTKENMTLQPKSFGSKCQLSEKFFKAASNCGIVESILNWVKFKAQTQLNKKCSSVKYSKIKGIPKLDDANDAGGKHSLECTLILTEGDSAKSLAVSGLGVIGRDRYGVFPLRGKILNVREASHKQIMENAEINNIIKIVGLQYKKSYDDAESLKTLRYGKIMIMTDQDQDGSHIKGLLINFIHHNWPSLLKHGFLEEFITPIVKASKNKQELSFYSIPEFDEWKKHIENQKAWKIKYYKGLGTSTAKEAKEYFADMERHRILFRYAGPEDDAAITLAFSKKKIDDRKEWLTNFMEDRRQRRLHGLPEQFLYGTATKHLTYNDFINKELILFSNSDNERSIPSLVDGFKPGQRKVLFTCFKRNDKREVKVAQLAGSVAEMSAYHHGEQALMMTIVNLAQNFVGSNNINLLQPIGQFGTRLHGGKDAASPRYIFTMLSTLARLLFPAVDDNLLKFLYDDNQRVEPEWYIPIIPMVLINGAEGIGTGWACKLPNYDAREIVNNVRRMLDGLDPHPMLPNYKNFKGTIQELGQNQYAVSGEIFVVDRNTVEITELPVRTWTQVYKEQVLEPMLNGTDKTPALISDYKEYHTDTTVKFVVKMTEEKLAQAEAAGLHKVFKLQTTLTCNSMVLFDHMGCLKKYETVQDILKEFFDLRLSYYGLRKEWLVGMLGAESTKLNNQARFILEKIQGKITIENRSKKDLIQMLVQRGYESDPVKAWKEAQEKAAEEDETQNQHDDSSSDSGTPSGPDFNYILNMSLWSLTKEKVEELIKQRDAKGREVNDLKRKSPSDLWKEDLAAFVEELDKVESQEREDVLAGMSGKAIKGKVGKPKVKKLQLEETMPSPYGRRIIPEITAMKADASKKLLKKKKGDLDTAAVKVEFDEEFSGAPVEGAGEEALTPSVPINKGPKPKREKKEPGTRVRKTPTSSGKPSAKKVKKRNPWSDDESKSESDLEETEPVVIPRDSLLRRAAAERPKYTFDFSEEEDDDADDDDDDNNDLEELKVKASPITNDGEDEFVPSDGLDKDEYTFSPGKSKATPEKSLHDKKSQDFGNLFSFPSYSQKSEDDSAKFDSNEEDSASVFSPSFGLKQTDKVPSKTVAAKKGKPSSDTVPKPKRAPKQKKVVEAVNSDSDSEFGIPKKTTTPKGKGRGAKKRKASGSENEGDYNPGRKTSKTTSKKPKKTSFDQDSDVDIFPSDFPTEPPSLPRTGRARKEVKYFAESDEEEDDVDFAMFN
Sequence of Calcium/calmodulin-dependent protein kinase type II subunit gamma (Q13555 whole entry): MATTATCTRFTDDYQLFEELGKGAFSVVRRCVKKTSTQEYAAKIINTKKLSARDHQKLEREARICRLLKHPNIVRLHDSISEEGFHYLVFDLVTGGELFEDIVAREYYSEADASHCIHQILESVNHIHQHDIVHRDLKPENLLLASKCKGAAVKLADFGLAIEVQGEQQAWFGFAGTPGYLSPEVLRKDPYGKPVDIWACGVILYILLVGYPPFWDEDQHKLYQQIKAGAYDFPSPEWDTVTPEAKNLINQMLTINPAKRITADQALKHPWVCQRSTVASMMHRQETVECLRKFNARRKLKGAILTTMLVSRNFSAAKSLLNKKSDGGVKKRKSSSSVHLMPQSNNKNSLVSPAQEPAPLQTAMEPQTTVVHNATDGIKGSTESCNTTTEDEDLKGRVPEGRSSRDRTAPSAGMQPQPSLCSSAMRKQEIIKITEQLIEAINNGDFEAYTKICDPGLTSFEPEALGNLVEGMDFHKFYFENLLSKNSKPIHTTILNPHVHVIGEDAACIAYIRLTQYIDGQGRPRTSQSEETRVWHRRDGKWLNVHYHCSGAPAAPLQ
Sequence of STE20-like serine/threonine-protein kinase (Q9H2G2 whole entry): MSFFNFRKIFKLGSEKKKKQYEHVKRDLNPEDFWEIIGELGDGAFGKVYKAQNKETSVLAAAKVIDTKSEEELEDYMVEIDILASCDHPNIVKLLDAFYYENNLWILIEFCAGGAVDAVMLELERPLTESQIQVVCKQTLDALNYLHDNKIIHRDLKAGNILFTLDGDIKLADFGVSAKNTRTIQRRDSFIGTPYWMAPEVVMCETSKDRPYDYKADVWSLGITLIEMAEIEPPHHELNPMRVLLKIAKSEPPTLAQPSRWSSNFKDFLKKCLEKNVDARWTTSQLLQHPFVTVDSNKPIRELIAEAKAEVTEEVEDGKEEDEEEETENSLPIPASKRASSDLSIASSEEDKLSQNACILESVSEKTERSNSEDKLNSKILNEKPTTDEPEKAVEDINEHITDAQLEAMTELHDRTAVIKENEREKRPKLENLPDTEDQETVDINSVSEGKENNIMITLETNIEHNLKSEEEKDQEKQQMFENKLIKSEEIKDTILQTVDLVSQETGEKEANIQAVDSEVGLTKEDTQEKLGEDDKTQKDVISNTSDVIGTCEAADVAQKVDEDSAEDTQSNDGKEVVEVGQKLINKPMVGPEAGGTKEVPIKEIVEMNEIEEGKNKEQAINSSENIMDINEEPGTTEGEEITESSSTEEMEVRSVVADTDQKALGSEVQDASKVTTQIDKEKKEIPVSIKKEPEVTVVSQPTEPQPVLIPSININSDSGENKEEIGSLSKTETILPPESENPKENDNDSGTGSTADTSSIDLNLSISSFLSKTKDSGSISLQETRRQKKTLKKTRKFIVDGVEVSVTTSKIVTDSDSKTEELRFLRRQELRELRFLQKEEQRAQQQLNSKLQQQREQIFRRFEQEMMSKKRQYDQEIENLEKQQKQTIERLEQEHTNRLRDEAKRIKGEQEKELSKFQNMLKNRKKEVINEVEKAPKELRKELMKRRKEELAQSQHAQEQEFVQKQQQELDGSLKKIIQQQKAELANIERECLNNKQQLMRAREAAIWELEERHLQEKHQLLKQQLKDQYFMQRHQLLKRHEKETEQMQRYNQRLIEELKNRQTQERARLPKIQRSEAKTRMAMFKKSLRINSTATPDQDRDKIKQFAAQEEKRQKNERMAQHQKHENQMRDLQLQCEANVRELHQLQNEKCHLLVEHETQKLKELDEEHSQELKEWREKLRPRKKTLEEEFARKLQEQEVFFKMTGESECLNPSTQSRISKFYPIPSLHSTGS

Row | SMILES | Kd [1] | Kd [2] | Kd [3] | Kd [4] | Kd [5] | Kd [6] | Kd [7] | Kd [8] | Kd [9] | Kd [10] | pKd [4] | pKd [9]
1 | COc1cc(F)c(F)c(Nc2ccc(I)cc2F)c1NS(=O)(=O)C1(C[C@H](O)CO)CC1 [REFAMETINIB] | > 30 µM (inactive) | > 30 µM (inactive) | > 30 µM (inactive) | > 30 µM (inactive) | > 30 µM (inactive) | > 30 µM (inactive) | > 30 µM (inactive) | > 30 µM (inactive) | > 30 µM (inactive) | > 30 µM (inactive) |  | 
2 | COc1cccc2cc(-c3nc([C@H]4CC[C@H](C(=O)O)CC4)n4ncnc(N)c34)[nH]c12 [OSI-027] | > 30 µM (inactive) | > 30 µM (inactive) | > 30 µM (inactive) | > 30 µM (inactive) | > 30 µM (inactive) | > 30 µM (inactive) | > 30 µM (inactive) | > 30 µM (inactive) | > 30 µM (inactive) | > 30 µM (inactive) |  | 
3 | CNC(=O)c1ccc(Nc2ncc(C(F)(F)F)c(NCc3nccnc3N(C)S(C)(=O)=O)n2)cc1 [DEFACTINIB] | 41 µM (active) | > 30 µM (inactive) | > 30 µM (inactive) | > 30 µM (inactive) | > 30 µM (inactive) | > 30 µM (inactive) | > 30 µM (inactive) | > 30 µM (inactive) | 9.12 µM (active) | > 30 µM (inactive) |  | 
4 | Cc1ccc(C(=O)Nc2ccc(Oc3cc4cnn(C)c4cc3-c3cn[nH]c3)c(F)c2)c(=O)n1-c1ccc(F)cc1 [MERESTINIB] | > 30 µM (inactive) | > 30 µM (inactive) | > 30 µM (inactive) | > 30 µM (inactive) | > 30 µM (inactive) | > 30 µM (inactive) | > 30 µM (inactive) | 3.26 µM (active) | > 30 µM (inactive) | > 30 µM (inactive) |  | 
5 | CNC(=O)c1cccc(-c2ccc3c(N4CCOC[C@@H]4C)nc(N4CCOC[C@@H]4C)nc3n2)c1 [VISTUSERTIB] | > 30 µM (inactive) | > 30 µM (inactive) | > 30 µM (inactive) | > 30 µM (inactive) | > 30 µM (inactive) | > 30 µM (inactive) | > 30 µM (inactive) | > 30 µM (inactive) | > 30 µM (inactive) | > 30 µM (inactive) |  | 
6 | C=CC(=O)Nc1cc(Nc2nccc(-c3cn(C)c4ccccc34)n2)c(OC)cc1N(C)CCN(C)C [OSIMERTINIB] | > 30 µM (inactive) | > 30 µM (inactive) | > 30 µM (inactive) | > 30 µM (inactive) | > 30 µM (inactive) | > 30 µM (inactive) | > 30 µM (inactive) | > 30 µM (inactive) | > 30 µM (inactive) | > 30 µM (inactive) |  | 
7 | COc1cc(Nc2ncc(F)c(Nc3ccc4c(n3)N(COP(=O)(O)O)C(=O)C(C)(C)O4)n2)cc(OC)c1OC [FOSTAMATINIB] | > 30 µM (inactive) | > 30 µM (inactive) | > 30 µM (inactive) | > 30 µM (inactive) | > 30 µM (inactive) | > 30 µM (inactive) | > 30 µM (inactive) | > 30 µM (inactive) | > 30 µM (inactive) | > 30 µM (inactive) |  | 
8 | COc1ccc2c(OCc3nnc4ccc(-c5ccccc5)nn34)ccnc2c1 [AMG-208] | > 30 µM (inactive) | > 30 µM (inactive) | > 30 µM (inactive) | > 30 µM (inactive) | > 30 µM (inactive) | > 30 µM (inactive) | > 30 µM (inactive) | > 30 µM (inactive) | > 30 µM (inactive) | > 30 µM (inactive) |  | 
9 | CC(C)CC(=O)Nc1[nH]nc2c1CN(C(=O)C1CCN(C)CC1)C2(C)C [PHA-793887] | > 30 µM (inactive) | > 30 µM (inactive) | > 30 µM (inactive) | > 30 µM (inactive) | > 30 µM (inactive) | > 30 µM (inactive) | > 30 µM (inactive) | > 30 µM (inactive) | > 30 µM (inactive) | > 30 µM (inactive) |  | 
10 | CC[C@@](C)(Nc1ccnc(-c2c[nH]c3ncccc23)n1)C(=O)NCC(F)(F)F [DECERNOTINIB] | 0.058 µM (active) | > 30 µM (inactive) | > 30 µM (inactive) |  | > 30 µM (inactive) | 0.148 µM (active) | > 30 µM (inactive) | > 30 µM (inactive) | > 30 µM (inactive) | > 30 µM (inactive) | 4.85 | 
11 | C=CCn1c(=O)c2cnc(Nc3ccc(N4CCN(C)CC4)cc3)nc2n1-c1cccc(C(C)(C)O)n1 [ADAVOSERTIB] | > 30 µM (inactive) | > 30 µM (inactive) | > 30 µM (inactive) | > 30 µM (inactive) | > 30 µM (inactive) | > 30 µM (inactive) | > 30 µM (inactive) | > 30 µM (inactive) | > 30 µM (inactive) | > 30 µM (inactive) |  | 
12 | O=c1[nH]c([C@@H]2CCCN2)nc2c1oc1ccc(Cl)cc12 | > 30 µM (inactive) | > 30 µM (inactive) | > 30 µM (inactive) | > 30 µM (inactive) | > 30 µM (inactive) | > 30 µM (inactive) | > 30 µM (inactive) | > 30 µM (inactive) |  | > 30 µM (inactive) |  | 7.40
13 | Cc1c(Cn2c(C)nc3c(C(=O)O)cc(N4CCOCC4)cc32)cccc1C(F)(F)F [GSK-2636771] | > 30 µM (inactive) | > 30 µM (inactive) | > 30 µM (inactive) | > 30 µM (inactive) | > 30 µM (inactive) | > 30 µM (inactive) | > 30 µM (inactive) | > 30 µM (inactive) | > 30 µM (inactive) | > 30 µM (inactive) |  | 

From ChEMBL document CHEMBL3991601, “The target landscape of clinical kinase drugs” (Science, 2017)
